Measurements as given in US6818647B2, “Method and composition for restoring diuretic and renal function” (CV Therapeutics, Inc, priority 1998, dated 2004).
“And” between values parts separate entries of the source, which are not always exact repeats. Identical values can stand only once. “Also recorded” adds a separate entry of the source.

Tests used:
[1] = target: T1, adenosine A1 receptor (Homo sapiens, UniProt P30542); experiment: IC50 for the adenosine A1 receptor; format: binding
T1 sequence (P30542 1-326): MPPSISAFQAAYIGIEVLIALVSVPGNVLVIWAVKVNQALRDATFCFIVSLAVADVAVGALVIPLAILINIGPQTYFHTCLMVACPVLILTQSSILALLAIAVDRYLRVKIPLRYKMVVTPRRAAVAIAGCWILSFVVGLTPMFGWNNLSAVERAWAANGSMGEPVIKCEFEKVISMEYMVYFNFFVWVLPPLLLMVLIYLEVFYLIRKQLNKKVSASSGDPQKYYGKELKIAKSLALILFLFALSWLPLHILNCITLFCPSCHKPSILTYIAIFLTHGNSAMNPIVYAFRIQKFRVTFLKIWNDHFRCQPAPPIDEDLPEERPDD

[2] = system: Male Sprague-Dawley rats; experiment: Sustained i.v. infusion of diuretics in conscious catheterised rats: dose response, combinations, renal clearance (Example 2); format: in vivo, rat; conditions: for Equidiuretic dose / dose at which the maximum diuretic effect was reached / Potassium excretion / diuretic effect (urine flow): sustained i.v. infusion; for dose at which the maximum diuretic effect was reached / Potassium excretion / diuretic effect (urine flow): dose response; for Potassium excretion / diuretic effect (urine flow): single agents
Protocol: Male Sprague-Dawley rats were obtained from Charles River Labs (Wilmington, Del.). They were housed in a light-controlled room with a 12 h light/dark cycle and were allowed ad libitum access to food and water.
Catheters were implanted in the abdominal aorta and vena cava via the left femoral artery and vein under a mixture of ketamine hydrochloride (50 mg/kg) and acepromazine (0.2 mg/kg, i.m.) anesthesia. An additional medical grade Tygon tubing was placed in the he stomach at the left extremity of the greater curvature. A silastic-covered stainless steel cannula was implanted in the bladder. Details of surgery, pre and post-surgical care and the experimental set-ups have been described in detail previously (87). Experiments were conducted 4-5 days following surgery, by which time the rats had fully recovered and were gaining weight. During the recovery, the rats were housed individually and were accustomed to a plastic retainer (model ECU, Braintree Scientific, Inc., Braintree, Mass.).
Between 8:00-9:00 AM, rats were weighed and placed in the restrainer. The arterial line was connected to a Gilson polygraph via a Gould pressure transducer for the recording of blood pressure (MAP) and heart rate (HR); the venous line to infusion pumps for the infusion of vehicle and test agents; and the stomach tube to a 10 or 20 cc syringe to allow for the replacement of excess urinary loss. The bladder cannula was extended with a short length of PE tubing to permit collection of urine into preweighed tubes.
To replace normal fluid and electrolytes loss, heparinized (50 U/ml) ringer's solution was infused throughout the experiment via the arterial line and 5% dextrose during the equilibration and control period via the venous line, each at 10 μl/min. When excess fluid loss reached 2 ml, it was replaced via the gastric tube with room temperature Ringer's solution. A period of 45-60 min was allowed for equilibration in all studies, at the end of which a 0.5 ml blood sample was taken for measurement of hematocrit, plasma electrolytes and creatinine. This was followed by the various experimental procedures described below.
Group 1. Sustained I.V. infusion of diuretic agents. Urine was collected in 5 min periods throughout the experimental period. After equilibration, 3 collections were made to establish baseline. thirty min urine collections were made before and during infusion of test agent. […] At the end of experiments, the rats were weighed again and returned to their home cages.
Group 2. Sustained i.v. infusion of combinations diuretics. […] After the termination of infusion, urine flow was allowed to return to baseline, approximately 15-20 min. The rats were then weighed and returned to their home cages.
Group 3. […] (10%) and PAH (2%) were infused i.v. at 20 μl/min from the start. IN order to establish baseline values, two 20 min urine collections were performed following equilibration. One blood sample (500 μl) was taken in the middle of the second collection.
Urinary and plasma concentrations of […] and PAH were determined by spectrophotometry, electrolyte concentrations were measured using the Synchron ASB Clinical System (Beckman Instr. Inc., Brea, Calif.) and osmolality by an automatic osmometer (Model 2430, Precision Systems, Inc., Natick, Mass.). Renal clearance values were calculated using standard clearance formulae and expressed per 100 g body weight.
All values represent maximal changes, expressed as absolute values, and are reported throughout as group means+−SEM. Data from the does-response studies (groups 1-5) were analyzed using an analysis of variance for repeated measures, post-hoc comparisons were made with the Schette f-test. Analysis of variance (ANOVA) was used to analyze differences between the effects of various diuretics and their combinations (group 6) and the renal clearance data (group 7). A value of P<0.05 was considered statistically significant.

[3] = system: Male Sprague-Dawley rats; experiment: Natriuretic response to oral dosing in rats in metabolic cages (Examples 3, 5, 6); format: in vivo, rat; conditions: once-daily gavage, Days 1-5, furosemide 100 mg/kg or BG9719 1 mg/kg; urine 4 hours after dosing
Protocol: Urines were collected for 4 hours post dosing and the natriuretic response was determined. The data are expressed as uEq/hr.
FIG. 8: In the same rats from FIG. 7, we collected urine for 4 hours after dosing.
Twenty four male Sprague-Dawley rats were placed in metabolic cages to collect urines in order to assess the natriuretic response to orally administered compounds. […] Urines were collected for 4 hours after dosing. Urine volume was determined gravimetrically and urinary sodium concentration was determined by flame photometry.
The rats shown in Example 4 were placed in metabolic cages on Days 1 through 5 of dosing and urine was collected for 4 hours after dosing. Urine volume was determined gravimetrically and urinary sodium concentration was determined by flame photometry.
They were placed in metabolic cages and urines were collected for four hours after dosing. Urine volume was determined gravimetrically and urinary sodium concentration was determined by flame photometry.

[4] = system: Male Sprague-Dawley rats; experiment: Renal function of anesthetized rats after 0-3 days of furosemide, before and after BG9719 IV (Example 7); format: in vivo, rat
Protocol: Twenty four hours after their last dose, they were anesthetized and instrumented to measure renal function and hemodynamics.
We collected a 30 minute baseline urine and determined basal sodium excretion in these rats.
Twenty-four hours after the last dose was administered, the rats were anesthetized and instrumented to measure renal function. […] Urine was collected via an implanted bladder catheter.

[5] = Micropuncture studies; format: in vivo; conditions: following administration of BG9719
[6] = target: T1, adenosine A1 receptor; conditions: other adenosine A1 receptor antagonists; cited from earlier work
[7] = system: patients with NYHA Class II or III CHF; experiment: Renal function in CHF patients after single intravenous dose (Example 1); conditions: 0-2 hours, mean, single i.v. dose
[8] = renal clearance study, FUR 10 μg/kg/min i.v. for 90 min

Row | IC50 [1] [nM] | Compound | increase in GFR ([2]; renal clearance study, 1 μg/kg/min i.v. for 90 min, not statistically significant) [%] | absolute and fractional excretions of sodium ([2]; renal clearance study, BG9719 1 or FUR 10 μg/kg/min i.v. for 90 min) | total urine output ([2]; representative animal of FIG. 1, i.v. infusion 0.3-10 μg/kg/min) [mL] | Equidiuretic dose [2] [µg/kg/min] | dose at which the maximum diuretic effect was reached [2] [µg/kg/min] | Potassium excretion [2] | diuretic effect (urine flow) [2] | natriuretic response on repeated dosing [3] | GFR after dosing in Day 3 furosemide rats ([4]; BG9719 0.1 mg/kg IV after 3 days furosemide) | urinary sodium excretion (UNaV) after dosing ([4]; BG9719 0.1 mg/kg IV, control rats and 3 Day Furo rats) | GFR after dosing versus baseline ([4]; BG9719 0.1 mg/kg IV, rats with 0-3 days furosemide) | tubular flow rates [5] | A1 vs. A2 selectivity [6] [fold] | GFR [2, 8] | RBF [2, 8] | basal GFR ([4]; after 1 day of furosemide 100 mg/kg orally) | Urine volume [7]
1 | 1.15 | CCCn1c(=O)c2nc(C3CC4CC3C3OC43)[nH]c2n(CCC)c1=O [BG9719, 1,3-dipropyl-8-[5,6-exo-epoxy)-2(S) norbornyl] xanthine] | 13 | increased | 23.8 | 1 | 3 | not | does-dependent increase in urine flow | maintained across multiple dosing days | recover to a level not different than normal rats | reaches maximum within the first fifteen minutes | increases in all groups | increased flow rates in both the proximal and distal tubules |  |  |  |  | 
2 |  | NS(=O)(=O)c1cc2c(cc1Cl)NCNS2(=O)=O [HCTZ, hydrochlorothiazide] |  |  |  | 30 | 20 | significantly increased | only minor effects |  |  |  |  |  |  |  |  |  | 
3 |  | CCCn1c(=O)c2[nH]c(C34CC5CC(CC3C5)C4)nc2n(CCC)c1=O [KW 3902] |  |  |  |  |  |  |  |  |  |  |  |  | 150 |  |  |  | 
4 |  | NS(=O)(=O)c1cc(C(=O)O)c(NCc2ccco2)cc1Cl [furosemide] |  |  |  | 10 | 100 |  | twice as a potent diuretic as BG9719 | diminishes on repeated dosing |  |  |  |  |  | significantly lowered | significantly lowered | relatively normal; also recorded: fairly normal | increased and 1081 mL
